{"source": "paper PMC4865845", "about": "“A human genome-wide loss-of-function screen identifies effective chikungunya antiviral drugs” (Nature Communications, 2016)"}
{"system": "CHIKV", "format": "cell-based, chikungunya virus"}
{"substance": "s26228 (sense GAACCTCACTGAGCCTTGA; chemistry not given here)", "Score_si2": 0.75}
{"substance": "s26229 (sense GGTGGTATACGGGACCAAT; chemistry not given here)", "Score_si3": -0.1}
{"substance": "s26230 (sense CGGGACCAATTACCGCAAA; chemistry not given here)", "Score_si4": -0.18}
{"substance": "s26801 (sense CCGAGAACCTCACAGAGAA; chemistry not given here)", "Score_si1": 2.26}
{"substance": "s26802 (sense ACATCTCAGGGACCCATTT; chemistry not given here)", "Score_si4": 1.65}
{"substance": "s26872 (sense GGGTTGACCTCATCCTCGA; chemistry not given here)", "Score_si4": 1.69}
{"substance": "s26873 (sense CTTCGAGACCGGTTCAAGA; chemistry not given here)", "Score_si1": 2.15}
{"substance": "s27208 (sense GACACTTGTTTCTTACCTA; chemistry not given here) [reference compound]", "Score_si4": 0.22}
{"substance": "s27209 (sense GGGTATAGAGGATAACCAA; chemistry not given here) [reference compound]", "Score_si2": -0.58}
{"substance": "s27210 (sense GGTTTTAAACATAACGAAA; chemistry not given here) [reference compound]", "Score_si3": -0.32}
{"substance": "s27235 (sense AGACCCACACTAAAGAATT; chemistry not given here) [reference compound]", "Score_si2": -0.6}
{"substance": "s27237 (sense ACACTAAAGAATTCCGGAA; chemistry not given here) [reference compound]", "Score_si3": -0.27}
{"substance": "s27640 (sense TGAAAAACGTAGAAATGAA; chemistry not given here)", "Score_si2": 1.74}
{"substance": "s27641 (sense GGGAAACAGTTGGAAGAGA; chemistry not given here)", "Score_si3": 1.64}
{"substance": "s27642 (sense GCATGATGTTCGTCCGCAA; chemistry not given here)", "Score_si4": 1.26}
{"substance": "s28294 (sense CATTCTGTGGTGAAACATT; chemistry not given here)", "Score_si1": 1.28}
{"substance": "s28296 (sense CTTCCTCGGTGGAACACGA; chemistry not given here)", "Score_si2": 1.22}
{"substance": "s28365 (sense AGATCGACAAGAACGAAGA; chemistry not given here) [reference compound]", "Score_si4": -0.72}
{"substance": "s28367 (sense CGACAAGAACGAAGACAGA; chemistry not given here) [reference compound]", "Score_si2": -1.08}
{"substance": "s28378 (sense CATTGTCACTTATTCGACT; chemistry not given here)", "Score_si4": 1.57}
{"substance": "s28379 (sense GAGTTACGATTGTACCCTA; chemistry not given here)", "Score_si3": 1.67}
{"substance": "s28640 (CACTCACACCATCCTATGA; chemistry not given here)", "Score_si1": 1.62}
{"substance": "s28991 (GAAGAGGTTTTGGAGTATA; chemistry not given here)", "Score_si4": 0.22}
{"substance": "s28992 (GAGCAACTCTGGTCGTGTA; chemistry not given here)", "Score_si3": 0.46}
{"substance": "s28993 (CCATAGATCTGAATTGGGA; chemistry not given here)", "Score_si2": 0.6}
{"substance": "s29015 (GAGAGTATATTGACTATGA; chemistry not given here)", "Score_si4": 0.52}
{"substance": "s29017 (GTCAGTACTTTATCTCGTT; chemistry not given here)", "Score_si2": 1.25}
{"substance": "s29268 (GGATGCGAAAGACAGAGTA; chemistry not given here)", "Score_si2": 1.55}
{"substance": "s29269 (CAGTTTACCGAGGAAGAAA; chemistry not given here)", "Score_si3": 1.26}
{"substance": "s30117 (GGTCTTTGGTGGTGTACAA; chemistry not given here)", "Score_si3": 0.96}
{"substance": "s30118 (CCTGCTATCTTGGTTCCAA; chemistry not given here)", "Score_si4": 0.62}
{"substance": "s30606 (CAGTGATGGTGATTCAGAT; chemistry not given here)", "Score_si4": 0.49}
{"substance": "s31180 (CCATAGATGAGAAGCGGTT; chemistry not given here)", "Score_si3": 1.93}
{"substance": "s31181 (CCACTCGTTTTGACTATTA; chemistry not given here)", "Score_si4": 1.82}
{"substance": "s31191 (GATAATCAGTTCAACTAAA; chemistry not given here)", "Score_si2": 1.84}
{"substance": "s31192 (GGAAGGACTTACTACTACA; chemistry not given here)", "Score_si3": 1.79}
{"substance": "s31193 (GGAATGATGTCGTCAGTAA; chemistry not given here)", "Score_si4": 1.58}
{"substance": "s31318 (GTACATCTTCGAATACGAT; chemistry not given here)", "Score_si2": 1.43}
{"substance": "s31658 (CGGCCTCTGAGGTGATCAA; chemistry not given here)", "Score_si2": 1.55}
{"substance": "s31659 (CCTCTGAGGTGATCAATGA; chemistry not given here)", "Score_si3": 1.43}
{"substance": "s31660 (CTGTCACACTCACTGAAAA; chemistry not given here)", "Score_si1": 1.8}
{"substance": "s31789 (AGGACATTATCAACCCGGA; chemistry not given here)", "Score_si3": 1.5}
{"substance": "s31790 (GGCTGTTCCTGAGACTGCA; chemistry not given here)", "Score_si4": 0.92}
{"substance": "s31791 (GACCTTAAGATACCAGTAT; chemistry not given here)", "Score_si2": 1.71}
{"substance": "s31800 (CCACACTCATCTATCGCAA; chemistry not given here)", "Score_si2": 1.32}
{"substance": "s32095 (CAGAAACGATCTACAAGAA; chemistry not given here)", "Score_si4": 1.53}
{"substance": "s32096 (GTTCCAGTATGGGAATTAT; chemistry not given here)", "Score_si3": 1.63}
{"substance": "s32097 (ACAGCGCAAGTTCCAGTAT; chemistry not given here)", "Score_si2": 1.75}
{"substance": "s32489 (GGAACAAGCTGTGATCCCA; chemistry not given here)", "Score_si1": 1.66}
{"substance": "s32491 (GCCTGTATATGAGAGCCTT; chemistry not given here)", "Score_si4": 0.05}
{"substance": "s33487 (GGTTATCAATGACGAGCAA; chemistry not given here)", "Score_si3": 1.7}
{"substance": "s33488 (CCACCTAGCTTGTAACGAA; chemistry not given here)", "Score_si4": 1.58}
{"substance": "s33489 (GGACTTCTGAAAATTCGCA; chemistry not given here)", "Score_si2": 1.9}
{"substance": "s33581 (GTACTTATATGAACGTATT; chemistry not given here)", "Score_si4": 1.43}
{"substance": "s33582 (CACCTAGAGTACGAAAACA; chemistry not given here)", "Score_si1": 1.69}
{"substance": "s34427 (GGTCAGAGACCATCCAGAA; chemistry not given here)", "Score_si2": 1.71}
{"substance": "s34429 (CTCCTGCCTTGAGCCCTTA; chemistry not given here)", "Score_si4": 0.3}
{"substance": "s34678 (GAGTTTAAGATGATGCCTA; chemistry not given here)", "Score_si3": 0.6}
{"substance": "s34679 (GGAAAGAAGGGAATGAGTT; chemistry not given here)", "Score_si2": 1.1}
{"substance": "s35016 (CCTGATCCACGAGAAGTCA; chemistry not given here)", "Score_si2": 1.63}
{"substance": "s35017 (AAGACAGGCTGATCAACTA; chemistry not given here)", "Score_si3": 0.94}
{"substance": "s35018 (GTGTGAAGGTAGACCGTGA; chemistry not given here)", "Score_si4": 0.46}
{"substance": "s35330 (CGGTGACTATGAAAGAAAT; chemistry not given here)", "Score_si4": 0.15}
{"substance": "s35331 (GCAGGTAATCTCTATACTA; chemistry not given here)", "Score_si2": 1.81}
{"substance": "s35332 (CAGGTATTCAGGTCCATGA; chemistry not given here)", "Score_si3": 0.27}
{"substance": "s35400 (ACGCAGAGGCGGGAACAAA; chemistry not given here)", "Score_si3": 0.6}
{"substance": "s35401 (GGAACAAACTAGCCCTCAA; chemistry not given here)", "Score_si2": 0.91}
{"substance": "s36691 (CAGATGTTATGGATATAAT; chemistry not given here) [reference compound]", "Score_si1": -1.07}
{"substance": "s36692 (GGCTATTGATTGTCCACAT; chemistry not given here) [reference compound]", "Score_si4": -0.43}
{"substance": "s37713 (GAACCTCCTTCGGGATAAA; chemistry not given here)", "Score_si3": 0.52}
{"substance": "s37714 (GCTCCTCAAAGGATATGAA; chemistry not given here)", "Score_si4": -0.71}
{"substance": "s37715 (CCGGAGAACCTGAAACTCA; chemistry not given here)", "Score_si2": 1.43}
{"substance": "s37726 (ACTTTTCCCTCTCTCCTAA; chemistry not given here)", "Score_si3": 0.28}
{"substance": "s37727 (GTAGCAGTGTGGTAGGATA; chemistry not given here)", "Score_si4": -0.44}
{"substance": "s37917 (GCCTCAGCTCAAACTCAAA; chemistry not given here)", "Score_si2": 1.72}
{"substance": "s37918 (GAAGAGCACAAGAACCAGA; chemistry not given here)", "Score_si3": 0.93}
{"substance": "s38241 (TCCTTTTCCATGTACCAGA; chemistry not given here)", "Score_si4": 0.18}
{"substance": "s38242 (CGGTCTCATGTACCAGAAA; chemistry not given here)", "Score_si3": 0.52}
{"substance": "s38243 (AGAAATTCCGGAACCAATT; chemistry not given here)", "Score_si2": 0.8}
{"substance": "s38293 (GTAACAACAAATACTCATA; chemistry not given here)", "Score_si2": 1.65}
{"substance": "s38294 (GGGTCCTGTTCATAAAGGA; chemistry not given here)", "Score_si4": 1.14}
{"substance": "s38295 (GCAATTCTGACGACAATAT; chemistry not given here)", "Score_si3": 1.57}
{"substance": "s38697 (GCAATTTGCTGTTGCCGAA; chemistry not given here)", "Score_si3": -0.06}
{"substance": "s38698 (GGATTCTTGTTGGACTAAT; chemistry not given here)", "Score_si4": -0.7}
{"substance": "s38699 (CCAGGAACTATGACACGTA; chemistry not given here)", "Score_si2": 0.75}
{"substance": "s38777 (GGCTCAAACTGGGAGTCAA; chemistry not given here)", "Score_si2": 1.07}
{"substance": "s38778 (CCCTTCCTCTATTCGAACA; chemistry not given here)", "Score_si4": -0.27}
{"substance": "s38779 (CCAAGATGACTGTGAATAA; chemistry not given here)", "Score_si3": 0.42}
